Reference: US3954840A, “1,3,5,7-Naphthalenetetracarboxylic acids and process for preparation thereof” (Teijin Ltd., priority 1973, dated 1976)
“And” between values parts separate entries of the source, which are not always exact repeats. Equal values may be shown once. “Also recorded” adds a separate entry of the source. Read-outs that look alike come from different tables or passages of the source.

Key:
[1] = Solubility of potassium naphthalenecarboxylates in pure water and in aqueous K4 XA solution (Table 1); format: physicochemical; conditions: 30% aqueous k4xa
Text: Generally, alkali metal naphthalenecarboxylates, taken individually, are easily soluble in a sufficient amount of water.

[2] = Solubility of potassium salts in water/methanol mixtures at 30°C (Table 4); format: physicochemical
Solubility in words = format: physicochemical; conditions: for Solubility in aqueous medium: aqueous medium (acid precipitation / disproportionation)
[3] = Solubility of K4 XA in aqueous potassium carbonate (Table 3); format: physicochemical; conditions: water
Thermal stability = format: physicochemical
[4] = 30°C
[5] = Stability in water / acid; format: physicochemical

## O=C([O-])c1ccc2cc(C(=O)[O-])ccc2c1.[K+].[K+]
[1]
  Solubility in 100 g of a 30% by weight aqueous solution of tetrapotassium 1,3,5,7-naphthalenetetracarboxylate: 1.0 g
[2]
  Change of solubility with increasing methanol concentration: decrease with higher methanol concentrations but not to such a great extent as in the case of K4 XA
[2]; 30°C, methanol 40 wt. %
  Amount of solute dissolved in 100 g of a mixture of water and methanol: 8.5 g
[2]; 30°C, methanol 60 wt. %
  Amount of solute dissolved in 100 g of a mixture of water and methanol: 3.6 g
[2]; 30°C, methanol 80 wt. %
  Amount of solute dissolved in 100 g of a mixture of water and methanol: 0.88 g
[2]; 30°C, methanol 100 wt. %
  Amount of solute dissolved in 100 g of a mixture of water and methanol: 0.17 g
[2]; water
  Amount of solute dissolved in 100 g of a mixture of water and methanol: 32 g

## O=C(O)c1cc(C(=O)O)c2cc(C(=O)O)cc(C(=O)[O-])c2c1.[K+]
Solubility in words
  Solubility in water: difficultly soluble

## O=C([O-])c1ccc2ccccc2c1.[K+]
[1]
  Solubility in 100 g of a 30% by weight aqueous solution of tetrapotassium 1,3,5,7-naphthalenetetracarboxylate: 0.3 g
[2]
  Change of solubility with increasing methanol concentration: decrease with higher methanol concentrations but not to such a great extent as in the case of K4 XA
[2]; 30°C, methanol 40 wt. %
  Amount of solute dissolved in 100 g of a mixture of water and methanol: 45 g
[2]; 30°C, methanol 60 wt. %
  Amount of solute dissolved in 100 g of a mixture of water and methanol: 30 g
[2]; 30°C, methanol 80 wt. %
  Amount of solute dissolved in 100 g of a mixture of water and methanol: 19 g
[2]; 30°C, methanol 100 wt. %
  Amount of solute dissolved in 100 g of a mixture of water and methanol: 9.3 g
[2]; water
  Amount of solute dissolved in 100 g of a mixture of water and methanol: 80 g

## O=C([O-])c1cc(C(=O)[O-])c2cc(C(=O)[O-])cc(C(=O)[O-])c2c1.[K+].[K+].[K+].[K+]
[3]
  Solubility (grams of the potassium salt dissolved in 100 g of solvent): 57.0 g and 48.8 g
[2]
  Change of solubility with increasing methanol concentration: decreases abruptly
Solubility in words
  Solubility in methanol: slightly soluble
  Solubility in water: very high; also recorded: Readily soluble
Thermal stability
  Thermal stability: almost no change occurred, but the product was stable
[4]; methanol 40%, K2CO3 0%
  Amount of tetrapotassium salt dissolved in 100 g of a mixture of water and methanol: 9.0 g
[4]; methanol 40%, K2CO3 10%
  Amount of tetrapotassium salt dissolved in 100 g of a mixture of water and methanol: 3.8 g
[4]; methanol 40%, K2CO3 20%
  Amount of tetrapotassium salt dissolved in 100 g of a mixture of water and methanol: 1.0 g
[4]; methanol 40%, K2CO3 30%
  Amount of tetrapotassium salt dissolved in 100 g of a mixture of water and methanol: 0.2 g
[4]; methanol 60%, K2CO3 0%
  Amount of tetrapotassium salt dissolved in 100 g of a mixture of water and methanol: 1.7 g
[4]; methanol 60%, K2CO3 10%
  Amount of tetrapotassium salt dissolved in 100 g of a mixture of water and methanol: 0.1 g
[4]; methanol 80%, K2CO3 0%
  Amount of tetrapotassium salt dissolved in 100 g of a mixture of water and methanol: 0.13 g
[4]; methanol 80%, K2CO3 3%
  Amount of tetrapotassium salt dissolved in 100 g of a mixture of water and methanol: < 0.01 g

## O=C([O-])c1cc(C(=O)[O-])c2cc(C(=O)O)cc(C(=O)[O-])c2c1.[K+].[K+].[K+]
[5]
  Stability in water: Easily decomposable

## O=C(O)c1cc(C(=O)O)c2cc(C(=O)O)cc(C(=O)O)c2c1 [1,3,5,7-naphthalenetetracarboxylic acid]
Solubility in words; alcohols
  Solubility in alcohols: Insoluble
Solubility in words
  Solubility in aqueous medium: very low solubility
  Solubility in benzene: Insoluble
  Solubility in ether(s): Insoluble
Solubility in words; listed as H4 XA
  Solubility in aqueous medium: almost insoluble
Solubility in words; various solvents
  Solubility in various solvents: very low solubility
Solubility in words; water
  Solubility in water: Insoluble
Thermal stability; high temperatures (melting point above 300°C)
  Thermal stability: decomposed

## O.O.O=C([O-])c1cc(C(=O)[O-])c2cc(C(=O)[O-])cc(C(=O)[O-])c2c1.[K+].[K+].[K+].[K+] [Tetrapotassium 1,3,5,7-naphthalenetetracarboxylate dihydrate]
[2]; 30°C, methanol 0 wt. %
  Amount of solute dissolved in 100 g of a mixture of water and methanol: 45 g
[2]; 30°C, methanol 40 wt. %
  Amount of solute dissolved in 100 g of a mixture of water and methanol: 9 g
[2]; 30°C, methanol 60 wt. %
  Amount of solute dissolved in 100 g of a mixture of water and methanol: 1.7 g
[2]; 30°C, methanol 80 wt. %
  Amount of solute dissolved in 100 g of a mixture of water and methanol: 0.13 g
[2]; 30°C, methanol 100 wt. %
  Amount of solute dissolved in 100 g of a mixture of water and methanol: 0.30 g

## CCCCOC(=O)c1cc(C(=O)OCCCC)c2cc(C(=O)OCCCC)cc(C(=O)OCCCC)c2c1 [tetra-n-butyl 1,3,5,7-naphthalenetetracarboxylate]
Solubility in words
  Solubility in chloroform: Readily soluble
  Solubility in ether(s): Readily soluble
Solubility in words; hot ethanol
  Solubility in hot ethanol: Readily soluble

## CCCCCCCCCCCCOC(=O)c1cc(C(=O)OCCCCCCCCCCCC)c2cc(C(=O)OCCCCCCCCCCCC)cc(C(=O)OCCCCCCCCCCCC)c2c1 [tetra-n-dodecyl 1,3,5,7-naphthalenetetracarboxylate]
Solubility in words; acetone
  Solubility in acetone: Readily soluble
Solubility in words
  Solubility in benzene: Readily soluble
  Solubility in chloroform: Readily soluble
  Solubility in ether(s): Readily soluble

## O=C([O-])c1cc(C(=O)[O-])c2cc(C(=O)[O-])cc(C(=O)[O-])c2c1.[Na+].[Na+].[Na+].[Na+] [tetrasodium 1,3,5,7-naphthalenetetracarboxylate]
Thermal stability; around 400°C
  Thermal stability: stable
